Test results published in PubChem BioAssay (NCI).
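Values below derive from 48-hour exposures of cells grown in 96-well plates, with endpoints linearly interpolated between the two concentrations bracketing the appropriate inhibition level. At the GI50, growth is halved. Definition used: TGI = concentration required for complete inhibition of growth.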

Experiments:
Experiment in all cases: NCI tumour cell line growth inhibition, 48 h
[1] = tested on: HOP-62 NSCLC
[2] = tested on: M14 melanoma
[3] = tested on: MCF7 breast
[4] = tested on: MDA-MB-435
[5] = tested on: NCI-H460 lung
[6] = tested on: PC-3 prostate
[7] = tested on: SF-295 CNS
[8] = tested on: SNB-19 CNS
[9] = tested on: UACC-257 melanoma
[10] = tested on: UO-31 renal

Work on Cc1cc(N/N=C/c2nc(-c3ccc(Br)cc3)oc2C)c2cc(Cl)ccc2n1 yielded a GI50 [1] greater than 100 µM, a TGI [1] greater than 100 µM and a GI50 [2] greater than 100 µM. For the same compound, the TGI [2] was greater than 100 µM, the GI50 [3] was greater than 100 µM and the TGI [3] was greater than 100 µM. The GI50 [4] was greater than 100 µM, the TGI [4] was greater than 100 µM and the GI50 [5] was greater than 100 µM. For the same compound, the TGI [5] was greater than 100 µM, the GI50 [6] was greater than 100 µM and the TGI [6] was greater than 100 µM. The GI50 [7] was greater than 100 µM, the TGI [7] was greater than 100 µM and the GI50 [8] was greater than 100 µM. It also gave a TGI [8] greater than 100 µM, a GI50 [9] greater than 100 µM and a TGI [9] greater than 100 µM. The GI50 [10] was greater than 100 µM and the TGI [10] was greater than 100 µM.
Compound COc1ccc(C(OCC2OC(n3ccc(NC(=O)c4ccccc4)nc3=O)C(O)C2O)(c2ccccc2)c2ccccc2)cc1 (centres undefined) has a TGI [1] of 4 µM, a TGI [2] of 3.62 µM and a TGI [3] of 4.26 µM. It also gave a TGI [4] of 5.73 µM, a TGI [5] of 4.02 µM and a TGI [6] of 8.28 µM. It also gave a TGI [7] of 3.49 µM, a TGI [8] of 9 µM and a TGI [9] of 21.1 µM. It also gave a TGI [10] of 11.4 µM.
CCN1CCC(CCOC)(CN2c3ccccc3Sc3ccc(Cl)cc32)C1 (centres undefined) was tested, and the GI50 [1] was 1.67 µM, the TGI [1] was 3.13 µM and the GI50 [2] was 1.92 µM. For the same compound, the TGI [2] was 3.62 µM, the GI50 [3] was 1.86 µM and the TGI [3] was 3.54 µM. The GI50 [4] was 1.74 µM, the TGI [4] was 3.35 µM and the GI50 [5] was 1.9 µM. For the same compound, the TGI [5] was 3.58 µM, the GI50 [6] was 2.03 µM and the TGI [6] was 4.74 µM. For the same compound, the GI50 [7] was 1.73 µM, the TGI [7] was 3.39 µM and the GI50 [8] was 2.65 µM. It also gave a TGI [8] of 7.31 µM, a GI50 [9] of 1.93 µM and a TGI [9] of 3.87 µM. The GI50 [10] was 1.66 µM and the TGI [10] was 3.63 µM.
C[C@]12CC[C@H]3[C@@H](CCC4=CC(=O)CC[C@@H]43)[C@@H]1CC[C@@H]2OC(=O)CCc1ccccc1 gave a GI50 [1] of 20.5 µM, a TGI [1] of 39.6 µM and a GI50 [2] of 21.2 µM. The TGI [2] was 46.4 µM, the GI50 [3] was 15.3 µM and the TGI [3] was 31.1 µM. For the same compound, the GI50 [4] was 24.5 µM, the TGI [4] was greater than 80.2 µM and the GI50 [5] was 17.1 µM. It also gave a TGI [5] of 35.6 µM, a GI50 [6] of 24.4 µM and a TGI [6] greater than 84.2 µM. The GI50 [7] was 15.5 µM, the TGI [7] was 30.6 µM and the GI50 [8] was 18.4 µM. It also gave a TGI [8] of 37.5 µM, a GI50 [9] of 24.6 µM and a TGI [9] of 59.5 µM. It also gave a GI50 [10] of 18.6 µM and a TGI [10] of 39.2 µM.
N#Cc1c(N/N=C/c2c(Cl)cccc2Cl)nc(N)nc1N1CCOCC1 showed a GI50 [1] of 13.9 µM, a TGI [1] greater than 100 µM and a GI50 [2] of 6.79 µM. For the same compound, the TGI [2] was 38.7 µM, the GI50 [3] was 3.18 µM and the TGI [3] was greater than 100 µM. It also gave a GI50 [4] of 3.26 µM, a TGI [4] of 36 µM and a GI50 [5] of 5.32 µM. It also gave a TGI [5] greater than 100 µM, a GI50 [6] of 3.91 µM and a TGI [6] of 95.8 µM. For the same compound, the GI50 [7] was 4.69 µM, the TGI [7] was greater than 100 µM and the GI50 [8] was 34.5 µM. It also gave a TGI [8] greater than 100 µM, a GI50 [9] of 6.77 µM and a TGI [9] greater than 100 µM. For the same compound, the GI50 [10] was 14.5 µM and the TGI [10] was 86.4 µM.
O=C1C(=O)c2c(nc3ccc(Cl)cn23)-c2ccccc21 showed a GI50 [1] of 0.666 µM, a TGI [1] of 1.66 µM and a GI50 [2] of 1.3 µM. It also gave a TGI [2] of 3.05 µM, a GI50 [3] of 0.167 µM and a TGI [3] of 0.356 µM. The GI50 [4] was 0.183 µM, the TGI [4] was 0.35 µM and the GI50 [5] was 0.538 µM. For the same compound, the TGI [5] was 2.31 µM, the GI50 [6] was 1.2 µM and the TGI [6] was 10.6 µM. The GI50 [7] was 1.52 µM, the TGI [7] was 3.13 µM and the GI50 [8] was 1.32 µM. It also gave a TGI [8] of 3 µM, a GI50 [9] of 0.284 µM and a TGI [9] of 0.803 µM. For the same compound, the GI50 [10] was 0.306 µM and the TGI [10] was 3.47 µM.
COc1cc2c(cc1OCCCCOc1cc3c(cc1OC)C(=O)N1CCC[C@H]1CN3)N=C[C@@H]1CCCN1C2=O gave a GI50 [1] of 3.36 µM, a TGI [1] greater than 100 µM and a GI50 [2] of 2.37 µM. For the same compound, the TGI [2] was 7.19 µM, the GI50 [3] was 0.346 µM and the TGI [3] was 1.76 µM. The GI50 [4] was 0.464 µM, the TGI [4] was 10.4 µM and the GI50 [5] was 2.92 µM. It also gave a TGI [5] greater than 100 µM, a GI50 [6] of 2.02 µM and a TGI [6] of 97.9 µM. The TGI [7] was 1.2 µM, the GI50 [8] was 3.16 µM and the TGI [8] was greater than 100 µM. For the same compound, the GI50 [9] was 5.64 µM, the TGI [9] was greater than 100 µM and the GI50 [10] was 2.89 µM. It also gave a TGI [10] greater than 23.9 µM.
C=C1CC[C@@H]2[C@](C)(COC(C)=O)[C@@H](O)CC[C@@]2(C)[C@@H]1COc1ccc2ccc(=O)oc2c1 showed a GI50 [1] greater than 100 µM, a TGI [1] greater than 100 µM and a GI50 [2] greater than 100 µM. It also gave a TGI [2] greater than 100 µM, a GI50 [3] greater than 100 µM and a TGI [3] greater than 100 µM. The GI50 [4] was greater than 100 µM, the TGI [4] was greater than 100 µM and the GI50 [5] was greater than 100 µM. The TGI [5] was greater than 100 µM, the GI50 [6] was greater than 100 µM and the TGI [6] was greater than 100 µM. For the same compound, the GI50 [7] was 25.9 µM, the TGI [7] was 79.1 µM and the GI50 [8] was greater than 100 µM. For the same compound, the TGI [8] was greater than 100 µM, the GI50 [9] was greater than 100 µM and the TGI [9] was greater than 100 µM. It also gave a GI50 [10] greater than 100 µM and a TGI [10] greater than 100 µM.
Compound O=c1[nH]c2ccccc2nc1-c1c[nH]c2ccccc12 has a GI50 [1] greater than 100 µM, a TGI [1] greater than 100 µM and a GI50 [2] greater than 100 µM. The TGI [2] was greater than 100 µM, the GI50 [3] was 93.4 µM and the TGI [3] was greater than 100 µM. It also gave a GI50 [4] greater than 100 µM, a TGI [4] greater than 100 µM and a GI50 [5] greater than 100 µM. The TGI [5] was greater than 100 µM, the GI50 [6] was greater than 100 µM and the TGI [6] was greater than 100 µM. The GI50 [7] was 68.2 µM, the TGI [7] was greater than 100 µM and the GI50 [8] was greater than 100 µM. It also gave a TGI [8] greater than 100 µM, a GI50 [9] greater than 100 µM and a TGI [9] greater than 100 µM. For the same compound, the GI50 [10] was 0.725 µM and the TGI [10] was greater than 100 µM.
For COc1cc2nc(N3CCCC3)nc(NCC3CCCCC3)c2cc1OC, the GI50 [1] was 1.56 µM, the TGI [1] was 3.2 µM and the GI50 [2] was 1.44 µM. It also gave a TGI [2] of 2.88 µM, a GI50 [3] of 0.515 µM and a TGI [3] of 2.03 µM. It also gave a GI50 [4] of 1.11 µM, a TGI [4] of 2.33 µM and a GI50 [5] of 1.75 µM. It also gave a TGI [5] of 3.35 µM, a GI50 [6] of 1.13 µM and a TGI [6] of 2.83 µM. The GI50 [7] was 1.38 µM, the TGI [7] was 2.71 µM and the GI50 [8] was 1.59 µM. It also gave a TGI [8] of 2.99 µM, a GI50 [9] of 0.364 µM and a TGI [9] of 1.36 µM. It also gave a GI50 [10] of 1.1 µM and a TGI [10] of 2.38 µM.
For O=C(O)C/C=C/CC(=O)O, the TGI [1] was greater than 100 µM, the TGI [2] was greater than 100 µM and the TGI [3] was greater than 100 µM. The TGI [4] was greater than 100 µM, the TGI [5] was greater than 100 µM and the TGI [6] was greater than 100 µM. The TGI [7] was greater than 100 µM, the TGI [8] was greater than 100 µM and the TGI [9] was greater than 100 µM. For the same compound, the TGI [10] was greater than 100 µM.
In the case of COc1cccc(NC(=O)c2sc3nc4c(cc3c2N)CN(Cc2ccccc2)CC4)c1, the GI50 [1] is reported as 1.83 µM, the TGI [1] is reported as 6.47 µM and the GI50 [2] is reported as 12.7 µM. It also gave a TGI [2] of 86.8 µM, a GI50 [3] of 0.62 µM and a TGI [3] greater than 100 µM. For the same compound, the GI50 [4] was 0.296 µM, the TGI [4] was 11 µM and the GI50 [5] was 4.18 µM. It also gave a TGI [5] of 30.9 µM, a GI50 [6] of 11.6 µM and a TGI [6] of 91.1 µM. The GI50 [7] was 3.05 µM, the TGI [7] was 19.4 µM and the GI50 [8] was 4.75 µM. It also gave a TGI [8] greater than 100 µM, a GI50 [9] of 6.52 µM and a TGI [9] greater than 100 µM. The GI50 [10] was 3.27 µM and the TGI [10] was 32.3 µM.
